Data published in patent US12091426B2, “Bifunctional degraders of hematopoietic progenitor kinase and therapeutic uses thereof” (Nurix Therapeutics, Inc., priority 2021, dated 2024).

Molecular target: T1, HPK1 (Homo sapiens, UniProt Q92918)
T1 construct: A HiBiT tag was introduced by CRISPR on the N terminus of HPK1 in Jurkat cells; host or cells: Jurkat cells (ATCC TIB-152), monoclonal line with CRISPR knock-in of HiBiT at the endogenous HPK1 locus
Assay: HPK1 Cellular HiBit Degradation Assay
Assay type: cell-based
Conditions: HiBiT HPK1 Jurkat cells, 24 hrs; for DC50: concentration at which 50% of HPK1 was remaining, read-out: DC50 Category; for Dmax: Jurkat, maximum degradation vs DMSO vehicle control, read-out: Dmax Category
Outline: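 Degraders are dosed in an 11-point series (10 uM to 0.1 nM final) onto Jurkat cells carrying an N-terminal HiBiT tag on endogenous HPK1. After 24 hrs at 37° C, lysis-based HiBiT luminescence quantifies remaining HPK1 relative to vehicle, and curve fitting gives DC50 and Dmax.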

T1 sequence (Q92918 whole entry): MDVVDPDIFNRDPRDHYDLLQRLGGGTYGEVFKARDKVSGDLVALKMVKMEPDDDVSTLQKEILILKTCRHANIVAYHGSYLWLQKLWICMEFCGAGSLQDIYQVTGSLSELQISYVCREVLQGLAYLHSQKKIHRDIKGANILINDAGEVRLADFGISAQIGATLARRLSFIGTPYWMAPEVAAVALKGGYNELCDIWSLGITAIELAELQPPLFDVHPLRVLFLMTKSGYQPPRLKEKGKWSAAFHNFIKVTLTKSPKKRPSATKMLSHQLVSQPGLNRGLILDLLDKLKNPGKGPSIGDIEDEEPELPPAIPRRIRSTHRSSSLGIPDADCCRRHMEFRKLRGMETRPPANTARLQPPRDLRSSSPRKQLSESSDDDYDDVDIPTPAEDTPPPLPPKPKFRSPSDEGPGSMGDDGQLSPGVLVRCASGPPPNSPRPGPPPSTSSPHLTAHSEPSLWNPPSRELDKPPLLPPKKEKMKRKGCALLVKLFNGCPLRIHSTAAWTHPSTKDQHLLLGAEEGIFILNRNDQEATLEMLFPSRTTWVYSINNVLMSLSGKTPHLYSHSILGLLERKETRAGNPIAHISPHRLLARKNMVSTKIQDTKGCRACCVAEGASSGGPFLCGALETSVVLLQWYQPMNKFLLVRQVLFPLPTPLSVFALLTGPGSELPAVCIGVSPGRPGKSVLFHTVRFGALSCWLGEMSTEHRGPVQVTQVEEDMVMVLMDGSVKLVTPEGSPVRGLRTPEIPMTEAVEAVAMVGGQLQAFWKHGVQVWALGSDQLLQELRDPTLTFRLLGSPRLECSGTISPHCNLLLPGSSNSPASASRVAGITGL

SMILES | DC50 [nM] | Dmax [%]
CC(C)Oc1nc(-c2ccc3c(c2)N([C@H]2C[C@@H](N4CCCCC4)C2)C(=O)C32CCN(C(=O)C3(C)CCN(C(=O)C4CCN(c5ccc(C6CCC(=O)NC6=O)cn5)CC4)CC3)CC2)cc2ncn(C(C)C)c12 (stereo partly drawn) [Example 169, 3-(6-{4-[4-methyl-4-({2-oxo-6-[3-(propan-2-yl)-4-(propan-2-yloxy)-3H-imidazo[4,5-c]pyridin-6-yl]-1-[(1S,3S)-3-(piperidin-1-yl)cyclobutyl]-1,2-dihydrospiro[indole-3,4′-piperidin]-1′-yl}carbonyl)piperidine-1-carbonyl]piperidin-1-yl}pyridin-3-yl)piperidine-2,6-dione] | < 100 | > 85
CC(C)n1cnc2cc(-c3ccc4c(c3)N([C@H]3C[C@@H](N5CCCCC5)C3)C(=O)C43CCN(C(=O)C4(C)CCN(C(=O)C5CCN(c6ccc(C7CCC(=O)NC7=O)cn6)CC5)CC4)CC3)nc(N3CCCC3)c21 (stereo partly drawn) [Example 170, 3-(6-{4-[4-methyl-4-({2-oxo-6-[3-(propan-2-yl)-4-(pyrrolidin-1-yl)-3H-imidazo[4,5-c]pyridin-6-yl]-1-[(1S,3S)-3-(piperidin-1-yl)cyclobutyl]-1,2-dihydrospiro[indole-3,4′-piperidin]-1′-yl}carbonyl)piperidine-1-carbonyl]piperidin-1-yl}pyridin-3-yl)piperidine-2,6-dione] | 100 to 500 | 50 to 70
CC(C)n1cnc2cc(-c3ccc4c(c3)N([C@H]3C[C@@H](N5CCCCC5)C3)C(=O)C43CCN(C(=O)C4(C)CCN(C(=O)C5CCN(c6ccc(C7CCC(=O)NC7=O)cn6)CC5)CC4)CC3)nc(N(C)C3CC3)c21 (stereo partly drawn) [Example 171, 3-[6-(4-{4-[(6-{4-[cyclopropyl(methyl)amino]-3-(propan-2-yl)-3H-imidazo[4,5-c]pyridin-6-yl}-2-oxo-1-[(1S,3S)-3-(piperidin-1-yl)cyclobutyl]-1,2-dihydrospiro[indole-3,4′-piperidin]-1′-yl)carbonyl]-4-methylpiperidine-1-carbonyl}piperidin-1-yl)pyridin-3-yl]piperidine-2,6-dione] | 100 to 500 | 70 to 85
CC(C(=O)N1CCN(C(=O)C2CCN(c3ccc(C4CCC(=O)NC4=O)cn3)CC2)CC1)N1CCC2(CC1)C(=O)N([C@H]1C[C@@H](N3CCCCC3)C1)c1cc(-c3cc4ncn(C(C)C)c4c(NC4CC4)n3)ccc12 (stereo partly drawn) [Example 172, 3-(6-{4-[4-(2-{6-[4-(cyclopropylamino)-3-(propan-2-yl)-3H-imidazo[4,5-c]pyridin-6-yl]-2-oxo-1-[(1S,3S)-3-(piperidin-1-yl)cyclobutyl]-1,2-dihydrospiro[indole-3,4′-piperidin]-1′-yl}propanoyl)piperazine-1-carbonyl]piperidin-1-yl}pyridin-3-yl)piperidine-2,6-dione] | < 100 | > 85
CC(C(=O)N1CCN(C(=O)C2CCN(c3cc(C4CCC(=O)NC4=O)ccn3)CC2)CC1)N1CCC2(CC1)C(=O)N([C@H]1C[C@@H](N3CCCCC3)C1)c1cc(-c3cc4ncn(C(C)C)c4c(NC4CC4)n3)ccc12 (stereo partly drawn) [Example 173, 3-(2-{4-[4-(2-{6-[4-(cyclopropylamino)-3-(propan-2-yl)-3H-imidazo[4,5-c]pyridin-6-yl]-2-oxo-1-[(1S,3S)-3-(piperidin-1-yl)cyclobutyl]-1,2-dihydrospiro[indole-3,4′-piperidin]-1′-yl}propanoyl)piperazine-1-carbonyl]piperidin-1-yl}pyridin-4-yl)piperidine-2,6-dione] | 100 to 500 | 70 to 85
CC(C)n1cnc2cc(-c3ccc4c(c3)N([C@H]3C[C@@H](N5CCCCC5)C3)C(=O)C43CCN(C(=O)C4(C)CCN(C(=O)C5CCN(c6ccc(C7CCC(=O)NC7=O)cn6)CC5)CC4)CC3)nc(N[C@H]3C[C@@H](C#N)C3)c21 (stereo partly drawn) [Example 174, (1S,3S)-3-({6-[1′-(1-{1-[5-(2,6-dioxopiperidin-3-yl)pyridin-2-yl]piperidine-4-carbonyl}-4-methylpiperidine-4-carbonyl)-2-oxo-1-[(1S,3S)-3-(piperidin-1-yl)cyclobutyl]-1,2-dihydrospiro-[indole-3,4′-piperidin]-6-yl]-3-(propan-2-yl)-3H-imidazo[4,5-c]pyridin-4-yl}amino)cyclobutane-1-carbonitrile] | < 100 | > 85
CC(C)n1cnc2cc(-c3ccc4c(c3)N([C@H]3C[C@@H](N5CCCCC5)C3)C(=O)C43CCN(C(=O)C4(C)CCN(C(=O)C5CCN(c6ccc(C7CCC(=O)NC7=O)cn6)CC5)CC4)CC3)nc(N3CC(C#N)C3)c21 (stereo partly drawn) [Example 175, 1-{6-[1′-(1-{1-[5-(2,6-dioxopiperidin-3-yl)pyridin-2-yl]piperidine-4-carbonyl}-4-methylpipe-ridine-4-carbonyl)-2-oxo-1-[(1S,3S)-3-(piperidin-1-yl)cyclobutyl]-1,2-dihydrospiro[indole-3,4′-pi-peridin]-6-yl]-3-(propan-2-yl)-3H-imidazo[4,5-c]pyridin-4-yl}azetidine-3-carbonitrile] | < 100 | 70 to 85
CC(C)n1cnc2cc(-c3ccc4c(c3)N([C@H]3C[C@@H](N5CCCCC5)C3)C(=O)C43CCN(C(=O)C4(C)CCN(C(=O)C5CCN(c6ccc(C7CCC(=O)NC7=O)cn6)CC5)CC4)CC3)nc(N[C@H]3C[C@H](C#N)C3)c21 (stereo partly drawn) [Example 176, (1R,3R)-3-({6-[1′-(1-{1-[5-(2,6-dioxopiperidin-3-yl)pyridin-2-yl]piperidine-4-carbonyl}-4-methylpiperidine-4-carbonyl)-2-oxo-1-[(1S,3S)-3-(piperidin-1-yl)cyclobutyl]-1,2-dihydrospiro[indole-3,4′-piperidin]-6-yl]-3-(propan-2-yl)-3H-imidazo[4,5-c]pyridin-4-yl}amino)cyclobutane-1-carbonitrile] | 100 to 500 | 70 to 85
CC(C)n1cnc2cc(-c3ccc4c(c3)N([C@H]3C[C@@H](N5CCCCC5)C3)C(=O)C43CCN(C(=O)C4(C)CCN(C(=O)C5CCN(c6ccc(C7CCC(=O)NC7=O)cn6)CC5)CC4)CC3)nc(NC3CC4(COC4)C3)c21 (stereo partly drawn) [Example 177, 3-(6-{4-[4-methyl-4-({6-[4-({2-oxaspiro[3.3]heptan-6-yl}amino)-3-(propan-2-yl)-3H-imidazo[4,5-c]pyridin-6-yl]-2-oxo-1-[(1S,3S)-3-(piperidin-1-yl)cyclobutyl]-1,2-dihydrospiro[indole-3,4′-piperidin]-1′-yl}carbonyl)piperidine-1-carbonyl]piperidin-1-yl}pyridin-3-yl)piperidine-2,6-dione] | < 100 | 70 to 85
CC(C)n1cnc2cc(-c3ccc4c(c3)N([C@H]3C[C@@H](N5CCCCC5)C3)C(=O)C43CCN(C(=O)C4(C)CCN(C(=O)C5CCN(c6ccc(C7CCC(=O)NC7=O)cn6)CC5)CC4)CC3)nc(OC3CC3)c21 (stereo partly drawn) [Example 178, 3-(6-{4-[4-({6-[4-cyclopropoxy-3-(propan-2-yl)-3H-imidazo[4,5-c]pyridin-6-yl]-2-oxo-1-[(1S,3S)-3-(piperidin-1-yl)cyclobutyl]-1,2-dihydrospiro[indole-3,4′-piperidin]-1′-yl}carbonyl)-4-methylpiperidine-1-carbonyl]piperidin-1-yl}pyridin-3-yl)piperidine-2,6-dione] | < 100 | > 85
